# Laboratory results as given in US11279697B2, “Aromatic derivative, preparation method for same, and medical applications thereof” (BIOARDIS LLC, priority 2017, dated 2022).
# Biological target: human FGFR4 protein (460-802 amino acids) (Homo sapiens (Human), UniProt P22455)
# Experiment: FGFR4 Activity Inhibition Test (HTRF KinEASE-TK in vitro kinase assay)
# Type: biochemical
# Details: compound-enzyme incubation 60 min at room temperature, kinase reaction 37° C. 40 min, 10 concentration points
# Description: The influence of the compound of the present invention on the activity of the tyrosine kinase FGFR4 was evaluated by an in vitro kinase assay experiment. The experimental method is summarized as follows: A HTRF® KinEASE™-TK 20000 tests kinase assay kit from CISBIO Corp. was used. The kit provided a biotin-labeled substrate, an EU-labeled phosphorylation site-specific antibody, and XL665-labeled avidin and a related buffer. FGFR4 phosphorylated the substrate, Eu-Ab identified the phosphorylated substrate, and XL665-SA binded to the biotin on the substrate, making Eu get closer to XL665, thus generating the HTRF signal. Changes in the activity of kinase was detected by reading the intensity of the HTRF signal. In the kinase assay experiment, there were mainly two steps of reaction: kinase reaction and assay reaction, respectively. In the kinase reaction, the kinase consumed ATP to phosphorylate the substrate, and at the same time produced a substrate containing a phosphate group. In the assay reaction, an assay reagent was added to terminate the kinase reaction. At the same time, the specific antibody and the XL665-labeled avidin in the assay reagent were binded to the phosphate group on the substrate and biotin respectively to generate HTRF signals. The signal intensity was directly proportional to the phosphorylation level of the substrate, and thereby the activity of the kinase FGFR4 could be quantitatively assayed. During the assay, the binding and incubation of the compound with the enzyme was carried out at room temperature for 60 min. The kinase reaction was carried out at a constant temperature of 37° C. for 40 min. […] The kinase substrates were TK (commercially available from Cisbio) and ATP (Sigma). The optical signals were read by a microplate reader TECAN Spark 10M plate reader (TECAN). The kinase reaction buffer comprised 1× Enzymatic buffer (CISBIO) 5 mM MgCl2 (Sigma) and 1 mM DTT (Sigma). […] First, the compound was dissolved and diluted with 100% DMSO into a 96-well plate at 3 concentrations: 4 mM, 40 μM, and 0.4 μM. […] Each concentration point was provided with two copy holes (starting point 10 μM, 3-fold dilution). First, 6 μL of the kinase solution was added into the 384-well assay plate, mixed uniformly and then incubated at room temperature for 60 min. Then 4 μL of the substrate reaction solution was added, and the total reaction volume was 10 μL. […] Subsequently, 10 μL of the kinase assay reagent was added and the reaction was terminated. Then the numerical values were read on the TECAN plate reader. The inhibition percentage was calculated based on the following formula: % inhibition=[1−(RLUcompound−RLUmin)/(RLUmax−RLUmin)]×100 wherein RLUcompound is the luminescence reading at the given compound concentration, RLUmin is the luminescence reading without the addition of kinase, and RLUmax is the luminescence reading without the addition of the compound. IC50 of the compound was calculated by the XLfit program in Excel.
# Chain of human FGFR4 protein (460-802 amino acids) (P22455 460-802): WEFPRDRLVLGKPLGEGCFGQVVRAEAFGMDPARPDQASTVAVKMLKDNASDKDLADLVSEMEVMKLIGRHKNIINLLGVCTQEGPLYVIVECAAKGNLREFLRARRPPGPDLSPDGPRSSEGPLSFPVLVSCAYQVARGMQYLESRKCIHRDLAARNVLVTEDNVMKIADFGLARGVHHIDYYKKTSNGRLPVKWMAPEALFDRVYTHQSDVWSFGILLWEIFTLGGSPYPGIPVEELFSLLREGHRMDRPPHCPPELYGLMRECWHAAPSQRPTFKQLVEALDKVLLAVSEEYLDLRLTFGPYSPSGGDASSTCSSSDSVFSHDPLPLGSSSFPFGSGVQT
row,IC50,Compound
1,5.73 nM,"C=CC(=O)Nc1cnn(C)c1-c1n[nH]c2c1CC[C@@H](c1c(F)c(OC)cc(OC)c1F)C2 (single isomer, unassigned) [Compound 281-P1, N-(5-(6-(2,6-difluoro-3,5-dimethoxyphenyl)-4,5,6,7-tetrahydro-1H-indazol-3-yl)-1-methyl-1H-pyrazol-4-yl)acrylamide]"
2,2.96 nM,"C=CC(=O)Nc1cnn(C)c1-c1n[nH]c2c1CC[C@@H](c1c(F)c(OC)cc(OC)c1F)C2 (single isomer, unassigned) [Compound 281-P2, N-(5-(6-(2,6-difluoro-3,5-dimethoxyphenyl)-4,5,6,7-tetrahydro-1H-indazol-3-yl)-1-methyl-1H-pyrazol-4-yl)acrylamide]"
3,190 nM,"C=CC(=O)Nc1ccc(N2CCN(C)CC2)cc1-c1n[nH]c2c1CC[C@@H](c1c(Cl)c(OC)cc(OC)c1Cl)C2 (single isomer, unassigned) [Compound 283-P1, N-(2-(6-(2,6-dichloro-3,5-dimethoxyphenyl)-4,5,6,7-tetrahydro-1H-indazol-3-yl)-4-(4-methylpiperazin-1-yl)phenyl)acrylamide]"
4,45 nM,"C=CC(=O)Nc1ccc(N2CCN(C)CC2)cc1-c1n[nH]c2c1CC[C@@H](c1c(Cl)c(OC)cc(OC)c1Cl)C2 (single isomer, unassigned) [Compound 283-P2, N-(2-(6-(2,6-dichloro-3,5-dimethoxyphenyl)-4,5,6,7-tetrahydro-1H-indazol-3-yl)-4-(4-methylpiperazin-1-yl)phenyl)acrylamide]"
5,158 nM,"C=CC(=O)Nc1ccc(Cl)cc1-c1n[nH]c2c1CC[C@@H](c1c(Cl)c(OC)cc(OC)c1Cl)C2 (single isomer, unassigned) [Compound 287-P1, N-(4-chloro-2-(6-(2,6-dichloro-3,5-dimethoxyphenyl)-4,5,6,7-tetrahydro-1H-indazol-3-yl)phenyl)acrylamide]"
6,91.1 nM,"C=CC(=O)Nc1ccc(Cl)cc1-c1n[nH]c2c1CC[C@@H](c1c(Cl)c(OC)cc(OC)c1Cl)C2 (single isomer, unassigned) [Compound 287-P2, N-(4-chloro-2-(6-(2,6-dichloro-3,5-dimethoxyphenyl)-4,5,6,7-tetrahydro-1H-indazol-3-yl)phenyl)acrylamide]"
7,109 nM,"C=CC(=O)Nc1cc(Cl)ccc1-c1n[nH]c2c1CC[C@@H](c1c(Cl)c(OC)cc(OC)c1Cl)C2 (single isomer, unassigned) [Compound 289-P1, N-(5-chloro-2-(6-(2,6-dichloro-3,5-dimethoxyphenyl)-4,5,6,7-tetrahydro-1H-indazol-3-yl)phenyl)acrylamide]"
8,210 nM,"C=CC(=O)Nc1cc(Cl)ccc1-c1n[nH]c2c1CC[C@@H](c1c(Cl)c(OC)cc(OC)c1Cl)C2 (single isomer, unassigned) [Compound 289-P2, N-(5-chloro-2-(6-(2,6-dichloro-3,5-dimethoxyphenyl)-4,5,6,7-tetrahydro-1H-indazol-3-yl)phenyl)acrylamide]"
9,3.4 nM,"C=CC(=O)Nc1ccc(N2CCN(C)CC2)cc1-c1n[nH]c2c1CC[C@@H](c1c(F)c(OC)cc(OC)c1F)C2 (single isomer, unassigned) [Compound 301-P1, N-(2-(6-(2,6-difluoro-3,5-dimethoxyphenyl)-4,5,6,7-tetrahydro-1H-indazol-3-yl)-4-(4-methylpiperazin-1-yl)phenyl)acrylamide]"
10,11.8 nM,"C=CC(=O)Nc1ccc(N2CCN(C)CC2)cc1-c1n[nH]c2c1CC[C@@H](c1c(F)c(OC)cc(OC)c1F)C2 (single isomer, unassigned) [Compound 301-P2, N-(2-(6-(2,6-difluoro-3,5-dimethoxyphenyl)-4,5,6,7-tetrahydro-1H-indazol-3-yl)-4-(4-methylpiperazin-1-yl)phenyl)acrylamide]"
11,85.5 nM,"C=CC(=O)Nc1cnn(C)c1-c1n[nH]c2c1CC[C@@H](c1cc(OC)cc(OC)c1F)C2 (single isomer, unassigned) [Compound 302-P1, N-(5-(6-(2-fluoro-3,5-dimethoxyphenyl)-4,5,6,7-tetrahydro-1H-indazol-3-yl)-1-methyl-1H-pyrazol-4-yl)acrylamide]"
12,35.4 nM,"C=CC(=O)Nc1cnn(C)c1-c1n[nH]c2c1CC[C@@H](c1cc(OC)cc(OC)c1F)C2 (single isomer, unassigned) [Compound 302-P2, N-(5-(6-(2-fluoro-3,5-dimethoxyphenyl)-4,5,6,7-tetrahydro-1H-indazol-3-yl)-1-methyl-1H-pyrazol-4-yl)acrylamide]"
13,6 nM,"C=CC(=O)Nc1cnn(C)c1-c1n[nH]c2c1CC[C@@H](c1c(F)c(OC)cc(OC)c1Cl)C2 (single isomer, unassigned) [Compound 303-P1, N-(5-(6-(2-chloro-6-fluoro-3,5-dimethoxyphenyl)-4,5,6,7-tetrahydro-1H-indazol-3-yl)-1-methyl-1H-pyrazol-4-yl)acrylamide]"
14,5.5 nM,"C=CC(=O)Nc1cnn(C)c1-c1n[nH]c2c1CC[C@@H](c1c(F)c(OC)cc(OC)c1Cl)C2 (single isomer, unassigned) [Compound 303-P2, N-(5-(6-(2-chloro-6-fluoro-3,5-dimethoxyphenyl)-4,5,6,7-tetrahydro-1H-indazol-3-yl)-1-methyl-1H-pyrazol-4-yl)acrylamide]"
15,446 nM,"C=CC(=O)Nc1cnn(C)c1-c1n[nH]c2c1CC[C@@H](c1cc(OC)cc(OC)c1)C2 (single isomer, unassigned) [Compound 310-P1, N-(5-(6-(3,5-dimethoxyphenyl)-4,5,6,7-tetrahydro-1H-indazol-3-yl)-1-methyl-1H-pyrazol-4-yl)acrylamide]"
16,171 nM,"C=CC(=O)Nc1cnn(C)c1-c1n[nH]c2c1CC[C@@H](c1cc(OC)cc(OC)c1)C2 (single isomer, unassigned) [Compound 310-P2, N-(5-(6-(3,5-dimethoxyphenyl)-4,5,6,7-tetrahydro-1H-indazol-3-yl)-1-methyl-1H-pyrazol-4-yl)acrylamide]"
17,203 nM,"C=CC(=O)Nc1cnn(C)c1-c1n[nH]c2c1CC[C@@H](c1cc(OC)cc(OC)c1Cl)C2 (single isomer, unassigned) [Compound 311-P1, N-(5-(6-(2-chloro-3,5-dimethoxyphenyl)-4,5,6,7-tetrahydro-1H-indazol-3-yl)-1-methyl-1H-pyrazol-4-yl)acrylamide]"
18,129 nM,"C=CC(=O)Nc1cnn(C)c1-c1n[nH]c2c1CC[C@@H](c1cc(OC)cc(OC)c1Cl)C2 (single isomer, unassigned) [Compound 311-P2, N-(5-(6-(2-chloro-3,5-dimethoxyphenyl)-4,5,6,7-tetrahydro-1H-indazol-3-yl)-1-methyl-1H-pyrazol-4-yl)acrylamide]"
19,29.2 nM,"C=CC(=O)Nc1ccccc1-c1n[nH]c2c1CCC(c1c(F)c(OC)cc(OC)c1F)C2 (stereo not drawn) [Compound 093, N-(2-(6-(2,6-difluoro-3,5-dimethoxyphenyl)-4,5,6,7-tetrahydro-1H-indazol-3-yl)phenyl)acrylamide]"
20,348 nM,"CC#CC(=O)Nc1ccccc1-c1cc(CCc2c(Cl)c(OC)cc(OC)c2Cl)[nH]n1 [Compound 096, N-(2-(5-(2,6-dichloro-3,5-dimethoxyphenethyl)-1H-pyrazol-3-yl)phenyl)but-2-ynoic amide]"
21,158 nM,"C=CC(=O)Nc1ccccc1-c1n[nH]c2c1CCC(c1cc(OC)cc(OC)c1F)C2 (stereo not drawn) [Compound 114, N-(2-(6-(2-fluoro-3,5-dimethoxyphenyl)-4,5,6,7-tetrahydro-1H-indazol-3-yl)phenyl)acrylamide]"
22,118 nM,"C=CC(=O)Nc1cc(F)ccc1-c1n[nH]c2c1CCC(c1c(Cl)c(OC)cc(OC)c1Cl)=C2 [Compound 296, N-(2-(6-(2,6-dichloro-3,5-dimethoxyphenyl)-4,5-dihydro-1H-indazol-3-yl)-5-fluorophenyl)acrylamide]"
23,236 nM,"C=CC(=O)Nc1ccc(F)cc1-c1n[nH]c2c1CCC(c1c(Cl)c(OC)cc(OC)c1Cl)=C2 [Compound 297, N-(2-(6-(2,6-dichloro-3,5-dimethoxyphenyl)-4,5-dihydro-1H-indazol-3-yl)-4-fluorophenyl)acrylamide]"
24,504 nM,"C=CC(=O)Nc1ccc(N2CCOCC2)cc1-c1n[nH]c2c1CCC(c1c(Cl)c(OC)cc(OC)c1Cl)=C2 [Compound 300, N-(2-(6-(2,6-dichloro-3,5-dimethoxyphenyl)-4,5-dihydro-1H-indazol-3-yl)-4-morpholinophenyl)acrylamide]"
